Some test systems named below: HCT-116 colon; M14 melanoma; OVCAR-5 ovarian; HL-60(TB) leukemia; SK-OV-3 ovarian; K-562 leukemia; NCI-H522 lung; HCC-2998 colon; SK-MEL-5 melanoma.
Common to all, as to assay: growth of human tumour cells (NCI), 48 h

Values joined by “and” are separate entries in the source; they are usually repeats but may differ in a detail not shown here. Identical values can stand only once.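 Where inhibition never reached the appropriate level, the endpoint shown equals the highest concentration tested. Otherwise, values were interpolated linearly from a five-concentration, 48-hour dose response in 96-well plates. GI50 marks 50% less growth. Definition used: TGI = concentration required for complete inhibition of growth.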

For `COc1ccc(-c2nc(N)c(C#N)c3c2CCOc2c-3ccc3ccccc23)cc1`, the GI50 is 54.3 µM with HCT-116 colon; 66.6 µM in the experiment with M14 melanoma; 62.2 µM in the experiment on OVCAR-5 ovarian; more than 100 µM in the experiment with HL-60(TB) leukemia; 17.4 µM with SK-OV-3 ovarian; more than 100 µM with K-562 leukemia. Besides, the GI50 in the experiment with NCI-H522 lung is 38.1 µM; with HCC-2998 colon, 56.1 µM. In addition, the TGI in the experiment on HCT-116 colon is more than 100 µM; in the experiment with M14 melanoma, more than 100 µM; in the experiment with OVCAR-5 ovarian, more than 100 µM; with HL-60(TB) leukemia it was more than 100 µM; in the experiment on SK-OV-3 ovarian it was 55 µM; in the experiment on K-562 leukemia, more than 100 µM. Further, the TGI with NCI-H522 lung and with HCC-2998 colon was more than 100 µM in each case.

In the case of `C1CC2=C(C1)C1=S(S2)SC2=C1CCC2`, the TGI in the experiment on HCT-116 colon, with M14 melanoma, in the experiment with OVCAR-5 ovarian, in the experiment on SK-MEL-5 melanoma, with HL-60(TB) leukemia and with SK-OV-3 ovarian was more than 100 µM throughout. The TGI with K-562 leukemia, with NCI-H522 lung and with HCC-2998 colon was more than 100 µM each time.

`CC(C)(C)c1nc(-c2cccc(NS(=O)(=O)c3c(F)cccc3F)c2F)c(-c2ccnc(N)n2)s1`: the GI50 in the experiment on HCT-116 colon is 20.4 µM; with OVCAR-5 ovarian, 12.3 µM; in the experiment with SK-MEL-5 melanoma, 0.0129 µM; with HL-60(TB) leukemia it was 4.68 µM; in the experiment on K-562 leukemia, 25.6 µM; with NCI-H522 lung, 19 µM. In the experiment with HCC-2998 colon, the GI50 was 24.1 µM. Further, the TGI in the experiment on HCT-116 colon was more than 100 µM; in the experiment with OVCAR-5 ovarian, more than 100 µM; in the experiment on SK-MEL-5 melanoma, more than 100 µM; in the experiment on HL-60(TB) leukemia, 37.4 µM; in the experiment with K-562 leukemia it was more than 100 µM; in the experiment on NCI-H522 lung it was 54.7 µM. The TGI in the experiment with HCC-2998 colon is 86.7 µM.

Take `O=C(O)Cn1ccc2ccccc21`: the GI50 in the experiment with HCT-116 colon, in the experiment with M14 melanoma, in the experiment with OVCAR-5 ovarian, in the experiment on SK-MEL-5 melanoma, in the experiment on SK-OV-3 ovarian and in the experiment on NCI-H522 lung was more than 100 µM each time. Besides, the GI50 in the experiment on HCC-2998 colon is more than 100 µM. Further, the TGI in the experiment on HCT-116 colon, with M14 melanoma, with OVCAR-5 ovarian, with SK-MEL-5 melanoma, with SK-OV-3 ovarian and with NCI-H522 lung was more than 100 µM each time. The same compound displayed a TGI in the experiment with HCC-2998 colon of more than 100 µM.

For `CNCCCNc1c2ccccc2nc2cccc([N+](=O)[O-])c12`, the TGI in the experiment on HCT-116 colon is 0.017 µM and 0.0108 µM; with M14 melanoma it was 0.00846 µM; in the experiment on OVCAR-5 ovarian it was 0.022 µM; with SK-MEL-5 melanoma it was 0.00982 µM; with SK-OV-3 ovarian, 0.0427 µM; in the experiment on NCI-H522 lung it was 0.0022 µM. Further, the TGI in the experiment on HCC-2998 colon worked out at 0.0173 µM.

Turning to `O=c1[nH]c(=O)n(C2CC(O)C(CO)O2)cc1COCC(F)(F)F` (stereo not drawn), the TGI in the experiment with M14 melanoma, with OVCAR-5 ovarian, in the experiment on SK-MEL-5 melanoma, in the experiment on HL-60(TB) leukemia, in the experiment with SK-OV-3 ovarian and with K-562 leukemia was more than 100 µM each time. Besides, the TGI in the experiment with NCI-H522 lung and in the experiment with HCC-2998 colon was more than 100 µM throughout.

Regarding `COc1ccc2c(c1)CCc1c(CO)c(COC(=O)NC(C)C)n(C)c1-2`, the TGI in the experiment with HCT-116 colon was 11.6 µM; in the experiment with M14 melanoma it was 33.8 µM; with OVCAR-5 ovarian, more than 100 µM; in the experiment on SK-MEL-5 melanoma it was 15.1 µM; in the experiment with HL-60(TB) leukemia, 5.23 µM; in the experiment on SK-OV-3 ovarian, 73.3 µM. Moreover, the TGI with K-562 leukemia turned out to be 10.5 µM; with NCI-H522 lung, 14.4 µM; with HCC-2998 colon it was 51.5 µM.

Take `C[C@H](NC(=O)c1c(C(F)F)nn(C)c1Oc1cccc(C(F)(F)F)c1)c1ccc(C(=O)O)cc1`: the GI50 with HCT-116 colon, in the experiment on M14 melanoma, with OVCAR-5 ovarian, with SK-MEL-5 melanoma, in the experiment with HL-60(TB) leukemia and with SK-OV-3 ovarian was more than 100 µM throughout. Also, the GI50 in the experiment with NCI-H522 lung and in the experiment on HCC-2998 colon was more than 100 µM each time. The TGI in the experiment with HCT-116 colon, in the experiment on M14 melanoma, in the experiment with OVCAR-5 ovarian, in the experiment with SK-MEL-5 melanoma, with HL-60(TB) leukemia and in the experiment on SK-OV-3 ovarian was more than 100 µM throughout. Also, the TGI in the experiment with NCI-H522 lung and in the experiment with HCC-2998 colon was more than 100 µM throughout.

Take `O=C(NC(=O)c1cn(CCN2CCN(C(=O)NCCCCCCNC(=O)N3CCN(CCn4cc(C(=O)NC(=O)OCc5ccccc5)c(=O)[nH]c4=O)CC3)CC2)c(=O)[nH]c1=O)OCc1ccccc1`: the TGI with HCT-116 colon, in the experiment on M14 melanoma, in the experiment on OVCAR-5 ovarian, in the experiment with SK-MEL-5 melanoma, with HL-60(TB) leukemia and in the experiment on SK-OV-3 ovarian was more than 100 µM each time. The compound further yielded a TGI in the experiment with K-562 leukemia of more than 100 µM.

For `COC(=O)CC(=O)NCC1=CCC(=O)CC1`, the TGI in the experiment with HCT-116 colon, in the experiment with M14 melanoma, in the experiment with SK-MEL-5 melanoma, with HL-60(TB) leukemia, in the experiment on SK-OV-3 ovarian and with K-562 leukemia was more than 100 µM throughout. In addition, the TGI in the experiment on NCI-H522 lung and in the experiment on HCC-2998 colon was more than 100 µM each time.

Take `CCC[CH2][Sn]([CH2]CCC)([CH2]CCC)[O]C(=O)C(OC)c1ccccc1` (stereo not drawn): the GI50 in the experiment with HCT-116 colon was 0.0508 µM; in the experiment with M14 melanoma, 0.133 µM; in the experiment with OVCAR-5 ovarian it was 0.0371 µM; in the experiment on SK-MEL-5 melanoma, 0.133 µM; with HL-60(TB) leukemia, 0.0418 µM; with SK-OV-3 ovarian it was 0.122 µM. Also, the GI50 was 0.0885 µM with NCI-H522 lung and 0.0381 µM in the experiment with HCC-2998 colon. In addition, the TGI in the experiment on HCT-116 colon worked out at 0.182 µM; in the experiment with M14 melanoma it was 0.263 µM; in the experiment with OVCAR-5 ovarian, 0.183 µM; with SK-MEL-5 melanoma, 0.262 µM; in the experiment with HL-60(TB) leukemia, 0.256 µM; in the experiment on SK-OV-3 ovarian it was 0.246 µM. Further, the figures for the TGI in the experiment on NCI-H522 lung and in the experiment with HCC-2998 colon were 0.212 µM and 0.144 µM, respectively.

For the compound `O=C(CN(/C=C/C(=O)C(F)(F)F)c1ccccc1)c1ccc(Cl)cc1`, the GI50 with HCT-116 colon was 12 µM; in the experiment on OVCAR-5 ovarian, 22.2 µM; with SK-MEL-5 melanoma, 16.4 µM; with SK-OV-3 ovarian, 36.4 µM; with K-562 leukemia, 20.9 µM; in the experiment on NCI-H522 lung it was 14.5 µM. For the same compound, the GI50 with HCC-2998 colon was 14.7 µM. For the same compound, the TGI is 24.5 µM in the experiment on HCT-116 colon; 46.4 µM with OVCAR-5 ovarian; 31.6 µM with SK-MEL-5 melanoma; more than 100 µM in the experiment with SK-OV-3 ovarian; 53.2 µM with K-562 leukemia; 35.4 µM with NCI-H522 lung. This compound also had a TGI in the experiment on HCC-2998 colon of 28.5 µM.

For the origin of these results see PubChem BioAssay (NCI).
